In brackets after ≈: the same amount, converted by molar mass.
Assays:
weed [1] = experiment: Membrane Diffusion Raft Trials, weed control; format: in vivo, grass-like algal growth common in sea water; conditions: membrane test, average 15 to 16 weeks of immersion
Procedure, shortened: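 Field raft test in sea water: known quantity of compound in container sealed with membrane of known porosity, diffusing into surrounding water; panels at waterline (illuminated, aerated) and flats (poorly lit, deeper). Fouling settlement inspected over about 15-16 weeks average immersion; scored 0 none, + some, ++ effective.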

barnacle = experiment: Membrane Diffusion Raft Trials, barnacle control; format: in vivo, barnacles; conditions: membrane test, average 15 to 16 weeks of immersion
Procedure, shortened: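 Test compound held in a plastic container sealed by a porous membrane, diffusing into surrounding seawater on raft panels alongside standard poisons and a non-toxic control membrane. Settlement timed and quantified by regular inspection; scored 0 (none), + (some) or ++ (effective), averaging 15 to 16 weeks' immersion.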

[2] = Amount of toxicant remaining in the test container after membrane diffusion raft tests; format: physicochemical; design: key: 0: empty or trace; +: some; + +: ample; conditions: after completion of membrane diffusion raft tests
Procedure, shortened: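 Known amount of compound held in a cylindrical container sealed with a membrane of known porosity, fixed to a raft panel so toxicant diffuses into the surrounding water. Each panel carries 35 test compounds, 4 standard poisons and 1 non-toxic membrane control. After the trial, container contents inspected visually for remaining toxicant (0 = empty or trace).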

Enteromorpha spores = experiment: Laboratory toxicity test (Lab Bioassay) with Enteromorpha spores; format: in vivo; conditions: using Enteromorpha spores
Procedure, shortened: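 Enteromorpha spores (zoospores or gametes) exposed to test compounds in laboratory toxicity tests. LD50 values expressed as percentage saturated solution.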

[3] = Water solubility by UV spectrophotometric method; format: physicochemical; conditions: water, saturated solution; Table 1; read-out: Solubility by UV method
Procedure, shortened: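 Molar absorptivity determined from UV absorbance of a known-concentration aqueous solution at λmax (10 cm cell). Saturated solution prepared by stirring excess compound in deionized water ~72 hrs, filtered, diluted to mid-scale absorbance; solubility calculated from absorbance using that absorptivity.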

Hydroids = experiment: Membrane test, hydroids (Table 1 footnote d); format: in vivo; design: key: Effective against Hydroids
Source text: 1). FIELD TESTS: - Membrane Diffusion Raft Trials
A known quantity of the test compound is placed into a cylindrical plastic container whose open end is then covered with a membrane of known porosity; the complete unit is attached to the appropriate raft panel so that the poison can freely diffuse into the free water layer around it. Regular inspections, recording time and quantity of settlement, allow a life history of each membrane trial to be constructed. Each raft panel contains 35 compounds to be evaluated together with 4 standard poisons and 1 non-toxic membrane for control.
The behavior on the raft can thus be compared with that of the standard poisons and the non-toxic control. At normal loading a membrane over the standard poisons would be free from macro-fouling after six months immersion. Compounds showing selective effects against restricted groups of fouling organisms also show up by membrane testing.
^d Effective against Hydroids.

weed [4] = experiment: Paint panel / plaque tests against weed (Table 2); format: in vivo, grass-like algal growth common in sea water; design: key: high performance; medium performance; low performance; poor or unacceptable performance; conditions: April to November, 1975
Procedure, shortened: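 Compounds are ground into vinyl chloride–vinyl acetate, chlorinated rubber, acrylic emulsion or conventional paints, with or without rosin, at 20% biocide in the wet film, and some also at 5, 10 and 15%. The paints are brushed at normal thickness onto 10 × 10 cm panels, which are immersed in the sea from a raft. Weed fouling is assessed over April–November 1975.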

[5] = tested on: sea water marine organisms; experiment: Effectiveness as sea water marine anti-foulant; format: in vivo; conditions: result in words
Source text: The results in anti-fouling paints when utilizing the 3-isothiazolones of the patents noted above, are not predictable from their effectiveness as general biocides, whether against fresh water algae, bacteria, fungi, insects, etc.
Of the compounds appearing hereinafter in the examples, a number are common to Table 1 appearing in columns 9-12 of the U.S. Pat. No. 3,573,488 patent. Among the compounds common to the latter patent and the present specification are the compounds identified in the patent as example numbers 3, 5-8, 13, 23, 24, 33, 36, 37, the n-octyl isomer of examples 38, 40, 75, 76, 79, 84, and 93-96.
In example B of the U.S. Pat. No. 3,573,448 patent (appearing in columns 22-24) involving the control of algae, bacteria, fungi, and slime in fresh water cooling towers, not one of the compounds, or in some cases its homologue or analog, was effective as a salt water marine anti-foulant. […]
In the following examples, two systems of testing the compounds and evaluating the same are utilized. One involves the utilization of a confined amount of the materials to be evaluated in a cylindrical container having an open end covered by a membrane permeable to a limited extent by the sea water and by the compound in the container. The other method involves making up an anti-fouling paint and testing the same. In a four month period, meaningful results are obtained, and for a full scale test, a six month period, bracketing the summer months, is preferred. The evaluations involving (1) field tests, (2) laboratory tests, and (3) paint panel tests, are as follows: […]

| SMILES | Weed Control (weed [1]) | Barnacle Control (barnacle) | Contents at the end of test (amount of toxicants remaining in the test container) [2] | Lab Bioassay LD50 (Enteromorpha spores) | solubility [3] [µg/mL] | Effective against Hydroids (footnote mark d) (Hydroids) | Effectiveness in paint CONV (conventional anti-fouling formulation) (weed [4]) | Effectiveness in paint CR (chlorinated rubber) (weed [4]) | Effectiveness in paint EM (acrylic emulsion) (weed [4]) | Effectiveness in paint V (polyvinyl chloride-acetate) (weed [4]) | Effectiveness in paint V/R (vinyl/rosin) (weed [4]) | effectiveness as anti-foulant in sea water marine environments [5] | effectiveness as anti-foulant in sea water marine environments ([5]; listed as hexyl homologue of 2-n-butyl-3-isothiazolone) |
| --- | --- | --- | --- | --- | --- | --- | --- | --- | --- | --- | --- | --- | --- |
| CCCCCCCCn1sc(Cl)c(Cl)c1=O [Example 57] | + + | + + | + + | 0.001 percentage saturated solution | 2.3 (≈ 8.15 µM) | d | m | h | h | h | h | – | – |
| CCCCCCCCn1sc(Cl)c(Br)c1=O [Example 88] | + + | + + | + | – | 2.6 (≈ 7.96 µM) | d | – | – | – | – | – | – | – |
| O=c1c(Cl)c(Cl)sn1-c1ccc(Cl)cc1 [Example 145, 4,5-dichloro-2(4'-chlorophenyl)-3-isothiazolone] | – | – | – | – | – | – | h | h | h | h | h | effective in anti-fouling environments | – |
| CCCCCCCCn1sc(Cl)cc1=O [Example 16] | + + | + + | 0 | – | 66 (≈ 266 µM) | d | – | – | – | – | – | – | – |
| CCCCCCCCCCn1sc(Cl)cc1=O [Example 22] | + + | + + | 0 | – | 7.2 (≈ 26.1 µM) | d | – | – | – | – | – | – | – |
| CC(C)(C)CC(C)(C)n1sccc1=O [Example 4, 2-t-octyl-3-isothiazolone] | 0 | 0 | 0 | – | 410 (≈ 1920 µM) | – | – | – | – | – | – | not active for controlling sea water marine organisms | – |
| CCCCCCn1sccc1=O [Example 2, 2-n-hexyl-3-isothiazolone] | 0 | 0 | 0 | – | 5100 (≈ 27500 µM) | – | – | – | – | – | – | not active for controlling sea water marine organisms | ineffective as anti-foulants |
